In the supplement of paper PMC10627819:

Assays:
[1] = system: S. aureus Newman; assay: Bliss interaction score (quartile over a dose matrix) (fitness difference); higher = more antagonism (negative = synergy)
Method in brief: (§1)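 Each plate was normalised to the robust mean of its own no-drug wells, using OD595 at entry into stationary phase, with values capped at 1. This normalised growth is the fitness value. The Bliss score is the difference between observed and product-expected fitness, with single-drug fitness inferred from the combination data and quartiles taken over technical, biological and donor/recipient replicates.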

[2] = system: S. aureus DSM 20231; assay: as above
Method in brief: as §1

[3] = system: B. subtilis 168; assay: as above
Method in brief: as §1

[4] = system: S. pneumoniae D39V; assay: as above
Method in brief: as §1

[5] = system: S. aureus Newman; assay: fitness (endpoint OD595 vs no drug) (fraction); higher = more growth
Method in brief: (§2)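 With the first reading as background, OD595 was measured every 30 min for 14 h in 384-well plates kept at 37 °C and inoculated at OD595 0.01. TSB, LB Lennox or CY was the medium. Fitness is the optical density at the transition into stationary phase divided by the robust mean of no-drug control wells, with a cap of 1.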

[6] = system: S. aureus DSM 20231; assay: as above
Method in brief: as §2

[7] = system: B. subtilis 168; assay: as above
Method in brief: as §2

[8] = system: S. pneumoniae D39V; assay: as above
Method in brief: as §2
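Wherever Bliss interaction score (quartile over a dose matrix) is given: first quartile when negative (synergy) and third quartile when positive (antagonism).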

C[C@@H]1O[C@@H]1P(=O)(O)O [Fosfomycin] + Cc1ncc([N+](=O)[O-])n1CCO [Metronidazole]
Conditions	Bliss interaction score
[1]	-0.0452
[2]	-0.0362
[3]	0.0663
[4]	0.0507

fitness
Conditions	partner 0.625 µg/mL	partner 1.073 µg/mL	partner 1.25 µg/mL	partner 2.145 µg/mL	partner 2.5 µg/mL	partner 4.29 µg/mL	partner 5 µg/mL
[5], first compound 0.781 µg/mL	0.58	–	0.636	–	0.612	–	–
[5], first compound 1.562 µg/mL	0.502	–	0.511	–	0.453	–	–
[5], first compound 3.124 µg/mL	0.133	–	0.079	–	0.0859	–	–
[6], first compound 0.781 µg/mL	0.785	–	0.783	–	0.852	–	–
[6], first compound 1.562 µg/mL	0.605	–	0.624	–	0.682	–	–
[6], first compound 3.124 µg/mL	0.497	–	0.493	–	0.493	–	–
[7], first compound 1.562 µg/mL	0.72	–	0.687	–	0.701	–	–
[7], first compound 3.124 µg/mL	0.679	–	0.627	–	0.634	–	–
[7], first compound 6.248 µg/mL	0.583	–	0.573	–	0.481	–	–
[8], first compound 1.25 µg/mL	–	0.957	0.975	0.94	0.992	0.95	1
[8], first compound 2.5 µg/mL	–	0.929	0.97	0.798	0.965	0.914	0.995
[8], first compound 5 µg/mL	–	0.87	0.857	0.893	0.886	0.864	0.847

fitness, [5], one replicate
Conditions	first compound 0.781 µg/mL	first compound 1.562 µg/mL	first compound 3.124 µg/mL
partner 0.781 µg/mL	0.587	0.579	0.211
partner 1.562 µg/mL	0.565	0.538	0.236
partner 3.124 µg/mL	0.584	0.546	0.272

C[C@@H]1O[C@@H]1P(=O)(O)O [Fosfomycin] + Cc1onc(-c2ccccc2)c1C(=O)N[C@@H]1C(=O)N2[C@@H]1SC(C)(C)[C@@H]2C(=O)O [Oxacillin]
Conditions	Bliss interaction score
[1]	-0.0668
[2]	-0.11
[3]	-0.0577
[4]	-0.154

Conditions	fitness
[5], first compound 0.781 µg/mL, partner 0.0156 µg/mL	0.606
[5], first compound 0.781 µg/mL, partner 0.0312 µg/mL	0.563
[5], first compound 0.781 µg/mL, partner 0.0625 µg/mL	0.49
[5], first compound 1.562 µg/mL, partner 0.0156 µg/mL	0.475
[5], first compound 1.562 µg/mL, partner 0.0312 µg/mL	0.421
[5], first compound 1.562 µg/mL, partner 0.0625 µg/mL	0.279
[5], first compound 3.124 µg/mL, partner 0.0156 µg/mL	0.145
[5], first compound 3.124 µg/mL, partner 0.0312 µg/mL	0.0796
[5], first compound 3.124 µg/mL, partner 0.0625 µg/mL	0.0515
[6], first compound 0.781 µg/mL, partner 0.0156 µg/mL	0.539
[6], first compound 0.781 µg/mL, partner 0.0312 µg/mL	0.504
[6], first compound 0.781 µg/mL, partner 0.0625 µg/mL	0.489
[6], first compound 1.562 µg/mL, partner 0.0156 µg/mL	0.442
[6], first compound 1.562 µg/mL, partner 0.0312 µg/mL	0.459
[6], first compound 1.562 µg/mL, partner 0.0625 µg/mL	0.362
[6], first compound 3.124 µg/mL, partner 0.0156 µg/mL	0.402
[6], first compound 3.124 µg/mL, partner 0.0312 µg/mL	0.335
[6], first compound 3.124 µg/mL, partner 0.0625 µg/mL	0.0751
[7], first compound 1.562 µg/mL, partner 0.002 µg/mL	0.65
[7], first compound 1.562 µg/mL, partner 0.004 µg/mL	0.696
[7], first compound 1.562 µg/mL, partner 0.008 µg/mL	0.568
[7], first compound 3.124 µg/mL, partner 0.002 µg/mL	0.566
[7], first compound 3.124 µg/mL, partner 0.004 µg/mL	0.546
[7], first compound 3.124 µg/mL, partner 0.008 µg/mL	0.51
[7], first compound 6.248 µg/mL, partner 0.002 µg/mL	0.358
[7], first compound 6.248 µg/mL, partner 0.004 µg/mL	0.33
[7], first compound 6.248 µg/mL, partner 0.008 µg/mL	0.281
[8], first compound 1.25 µg/mL, partner 0.005 µg/mL	≥ 1
[8], first compound 1.25 µg/mL, partner 0.01 µg/mL	0.996
[8], first compound 1.25 µg/mL, partner 0.02 µg/mL	0.916
[8], first compound 1.25 µg/mL, partner 0.04 µg/mL	0.3
[8], first compound 2.5 µg/mL, partner 0.005 µg/mL	0.982
[8], first compound 2.5 µg/mL, partner 0.01 µg/mL	0.913
[8], first compound 2.5 µg/mL, partner 0.02 µg/mL	0.843
[8], first compound 2.5 µg/mL, partner 0.04 µg/mL	0.181
[8], first compound 5 µg/mL, partner 0.005 µg/mL	0.85
[8], first compound 5 µg/mL, partner 0.04 µg/mL	0.0702

fitness, [7], one replicate
Conditions	partner 0.0078 µg/mL	partner 0.0155 µg/mL	partner 0.031 µg/mL	partner 0.075 µg/mL	partner 0.15 µg/mL	partner 0.3 µg/mL
first compound 1.562 µg/mL	0.807	0.835	0.797	0.339	0.0497	0.0455
first compound 3.124 µg/mL	0.663	0.68	0.613	0.164	0.0172	0.0362
first compound 6.248 µg/mL	0.548	0.531	0.504	0.0968	0.0104	0.0381

Cc1ncc([N+](=O)[O-])n1CCO [Metronidazole] + CC1=C\[C@@H](O)CC(=O)Cc2nc(co2)C(=O)N2CCC=C2C(=O)O[C@H](C(C)C)[C@H](C)/C=C/C(=O)NC\C=C\1 [Virginiamycin M1]
Conditions	Bliss interaction score
[1]	0.0634
[2]	0.0516
[3]	-0.0294
[4]	0.0226

Conditions	fitness
[5], first compound 0.625 µg/mL, partner 0.0625 µg/mL	0.97
[5], first compound 0.625 µg/mL, partner 0.125 µg/mL	0.973
[5], first compound 0.625 µg/mL, partner 0.25 µg/mL	0.975
[5], first compound 1.25 µg/mL, partner 0.0625 µg/mL	0.984
[5], first compound 1.25 µg/mL, partner 0.125 µg/mL	0.993
[5], first compound 1.25 µg/mL, partner 0.25 µg/mL	≥ 1
[5], first compound 2.5 µg/mL, partner 0.0625 µg/mL	0.992
[5], first compound 2.5 µg/mL, partner 0.125 µg/mL	≥ 1
[5], first compound 2.5 µg/mL, partner 0.25 µg/mL	0.991
[6], first compound 0.625 µg/mL, partner 0.0625 µg/mL	≥ 1
[6], first compound 0.625 µg/mL, partner 0.125 µg/mL	≥ 1
[6], first compound 0.625 µg/mL, partner 0.25 µg/mL	≥ 1
[6], first compound 1.25 µg/mL, partner 0.0625 µg/mL	≥ 1
[6], first compound 1.25 µg/mL, partner 0.125 µg/mL	≥ 1
[6], first compound 1.25 µg/mL, partner 0.25 µg/mL	≥ 1
[6], first compound 2.5 µg/mL, partner 0.0625 µg/mL	≥ 1
[6], first compound 2.5 µg/mL, partner 0.125 µg/mL	≥ 1
[6], first compound 2.5 µg/mL, partner 0.25 µg/mL	≥ 1
[7], first compound 0.625 µg/mL, partner 0.0625 µg/mL	0.995
[7], first compound 0.625 µg/mL, partner 0.125 µg/mL	0.946
[7], first compound 0.625 µg/mL, partner 0.25 µg/mL	0.956
[7], first compound 1.25 µg/mL, partner 0.0625 µg/mL	0.951
[7], first compound 1.25 µg/mL, partner 0.125 µg/mL	0.938
[7], first compound 1.25 µg/mL, partner 0.25 µg/mL	≥ 1
[7], first compound 2.5 µg/mL, partner 0.0625 µg/mL	0.929
[7], first compound 2.5 µg/mL, partner 0.125 µg/mL	0.944
[7], first compound 2.5 µg/mL, partner 0.25 µg/mL	0.96
[8], first compound 1.073 µg/mL, partner 0.5 µg/mL	≥ 1
[8], first compound 1.073 µg/mL, partner 1 µg/mL	≥ 1
[8], first compound 1.073 µg/mL, partner 2 µg/mL	≥ 1
[8], first compound 1.25 µg/mL, partner 2 µg/mL	0.944
[8], first compound 2.145 µg/mL, partner 0.5 µg/mL	0.912
[8], first compound 2.145 µg/mL, partner 1 µg/mL	0.945
[8], first compound 2.145 µg/mL, partner 2 µg/mL	0.877
[8], first compound 2.5 µg/mL, partner 2 µg/mL	0.94
[8], first compound 4.29 µg/mL, partner 0.5 µg/mL	≥ 1
[8], first compound 4.29 µg/mL, partner 1 µg/mL	0.994
[8], first compound 4.29 µg/mL, partner 2 µg/mL	≥ 1
[8], first compound 5 µg/mL, partner 2 µg/mL	0.946

fitness, one replicate
Conditions	first compound 0.625 µg/mL	first compound 1.25 µg/mL	first compound 2.5 µg/mL	first compound 5 µg/mL
[5], partner 0.5 µg/mL	0.902	0.899	0.89	–
[5], partner 1 µg/mL	0.912	0.922	≥ 1	–
[5], partner 2 µg/mL	0.919	0.919	0.949	–
[6], partner 0.5 µg/mL	0.825	0.842	0.978	–
[6], partner 1 µg/mL	0.725	0.827	0.908	–
[8], partner 0.15 µg/mL	–	≥ 1	≥ 1	≥ 1
[8], partner 0.3 µg/mL	–	≥ 1	0.987	0.96
[8], partner 0.5 µg/mL	–	≥ 1	0.973	≥ 1
[8], partner 1 µg/mL	–	≥ 1	≥ 1	≥ 1
